# Read-outs that look alike come from different tables or passages of the source.
# Molecular target: T1, Fn14-TWEAK binding (Homo sapiens, UniProt Q9NP84)
# T1 construct: the human Fc fragment-tagged Fn14 extracellular domain (R&D Systems) was captured; purchased R&D Systems (Fn14-Fc); Peprotech (recombinant TWEAK)
# T1 sequence (Q9NP84 28-80 limits assumed): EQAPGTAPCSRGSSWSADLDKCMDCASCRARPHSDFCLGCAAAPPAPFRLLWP
# Assay: Double sandwich ELISA small molecule screening of TWEAK binding to captured Fn14-Fc
# Procedure: Double Sandwich ELISA. sTWEAK and sTWEAK variant proteins were synthesized as described above. The expression level of each IVTT synthesized sTWEAK protein was analyzed by western blot analysis and used in approximately equal amounts in the ELISA. To assay the binding of wild type sTWEAK and sTWEAK variants to Fn14, the human Fc fragment-tagged Fn14 extracellular domain (R&D Systems) was captured in an Immuno 96-microwell white plate by adding 100 μL of 0.025 μg/mL Fn14-Fc to wells coated with goat anti-human Fcγ fragment specific monoclonal antibody. After capture, the wells were washed 3× with Dulbecco's Phosphate Buffered Saline (DPBS) containing 0.05% Tween-20. Unbound sites were blocked by addition of 100 μL of blocking solution containing 0.05% Tween-20, 1% BSA, and 3% normal goat serum (NGS) in DPBS for 1 hr at room temperature. 0.01 μL of sTWEAK or sTWEAK variant made with the human IVTT kit or 2 μL of sTWEAK or sTWEAK variant made with the rabbit IVTT kit was diluted in 100 μL of sample diluent (DPBS+1% BSA+0.005% Tween-20) and then added to the wells for 2 hr followed by addition of 100 μL of 50 ng/mL biotinylated TWEAK detection antibody (R&D Systems) in sample diluent. Following incubation for additional 2 hr at room temperature, wells were washed 3× with DPBS containing 0.05% Tween-20 and bound biotinylated TWEAK antibody was detected by incubation with an HRP-conjugated streptavidin. The total luminescent signal was obtained using Femto ELISA kit (Pierce Biochemical) and compared to the standard curve signal obtained from the binding of 0-4000 pg/mL recombinant TWEAK (Peprotech inc) to Fn14-Fc. Using 5-parameter logistic curve fitting for standard curve analysis (Sigmaplot 11.0, SyStat Software Inc.), binding of sTWEAK or TWEAK variant to Fn14-Fc was determined. The data represents that observed for at least four replicate assays.
# The small molecule screening was performed using the ELISA assay described above with minor modifications. Briefly, after capturing Fn14-Fc in the microwell plate, 80 μl of drug solution in sample diluent was added to desired wells and incubated for 2 hrs at room temperature. Subsequently, 20 μL of 2500 pg/mL (5×) TWEAK was added to each well to achieve final TWEAK concentration of 500 pg/mL and incubated for additional 2 hr at room temperature. Bound TWEAK was detected as described in the protocol above. All small molecule inhibitors were screened at 25 μM final concentration (final DMSO concentration of 0.125%) in duplicate. Cyclohexamide, a non-specific small molecule, at 25 μM concentration was used as negative control. The anti-Fn14 antibody ITEM-4, added at 2.5 μg/mL, was used as a positive control for complete blockade of TWEAK binding. Reduction in TWEAK binding due to compound addition or controls was calculated by using standard curve (Separate standard curve was obtained for every screening plate).
# [1] = Table 5, 25 μM, average of duplicate, read-out: % Reduction in TWEAK Binding, Average
# [2] = Table 5, 25 μM, replicate 1, read-out: % Reduction in TWEAK Binding, Data 1
# [3] = Table 5, 25 μM, replicate 2, read-out: % Reduction in TWEAK Binding, Data 2
# [4] = Table 4, second screening iteration, 25 μM, average of duplicate, read-out: % Reduction in TWEAK Binding, Average
# [5] = Table 4, second screening iteration, 25 μM, replicate 1, read-out: % Reduction in TWEAK Binding, Data 1
# [6] = Table 4, second screening iteration, 25 μM, replicate 2, read-out: % Reduction in TWEAK Binding, Data 2
# [7] = second screening iteration, 25 μM, average, read-out: inhibition of TWEAK binding to Fn14
# [8] = Table 3, first round of screening, 25 μM, average of duplicate, read-out: % Reduction in TWEAK Binding, Average
# [9] = Table 3, first round of screening, 25 μM, replicate 1, read-out: % Reduction in TWEAK Binding, Data 1
# [10] = Table 3, first round of screening, 25 μM, replicate 2, read-out: % Reduction in TWEAK Binding, Data 2
# [11] = first round of screening, 25 μM, read-out: average inhibition in TWEAK-Fn14 binding
Compound,inhibition at 25 µM [1],inhibition at 25 µM [2],inhibition at 25 µM [3],inhibition at 25 µM [4],inhibition at 25 µM [5],inhibition at 25 µM [6],inhibition at 25 µM [7],"% Reduction in TWEAK Binding, Average (Table 4, second screening iteration, 25 μM, average of duplicate)","% Reduction in TWEAK Binding, Data 2 (Table 4, second screening iteration, 25 μM, replicate 2)",inhibition at 25 µM [8],inhibition at 25 µM [9],inhibition at 25 µM [10],"inhibition at 25 µM (first round of screening, 25 μM, read-out: single point activities / individual data points, inhibition of the Fn14-TWEAK interaction)",inhibition at 25 µM [11]
CCS(=O)(=O)c1ccc(OCc2cc(=O)n3oc(C)cc3n2)c(NC(=O)COc2ccccc2C)c1,19.6%,22.2%,17.1%,–,–,–,–,–,–,–,–,–,–,–
O=C(c1csc(S(=O)(=O)NCc2ccccn2)c1)N1CCCCCC1,12%,15.3%,8.76%,–,–,–,–,–,–,–,–,–,–,–
O=C(NCc1ccc(F)cc1)C1CCCN(c2nc3c(-c4ccccc4)csc3c(=O)[nH]2)C1 (centres unmarked),22%,28.1%,15.9%,–,–,–,–,–,–,–,–,–,–,–
O=C(NCc1ccncc1)C1CCCN(c2nc3c(-c4ccccc4)csc3c(=O)[nH]2)C1 (centres unmarked),14.3%,13.4%,15.2%,–,–,–,–,–,–,–,–,–,–,–
Cc1cc(NC(=O)CSc2ccccc2)ccc1Cl [Compound 1068-0114],13.4%,21.9%,4.93%,13.4%,21.9%,4.93%,–,–,–,–,–,–,–,–
COc1ccc(-c2nnc(SCC(=O)Nc3ccccc3OC)nc2-c2ccc(OC)cc2)cc1 [Compound 3809-1067],32.1%,34.5%,29.8%,32.1%,34.5%,29.8%,32.1%,–,–,–,–,–,–,–
O=C(CSc1cccc2cccnc12)Nc1ccc2ccccc2c1 [Compound 4084-0026],11.1%,15.3%,6.85%,11.1%,15.3%,6.85%,–,–,–,–,–,–,–,–
CCC(=O)Nc1ccccc1-c1ccccc1NC(=O)CC [Compound 4478-7056],16.5%,15%,18%,16.5%,15%,18%,–,–,–,–,–,–,–,–
O=C(CSc1nnc(-c2ccccc2)c(-c2ccccc2)n1)Nc1ccc(S(=O)(=O)Nc2nccs2)cc1 [Compound 4981-0539],11.7%,11.3%,12.2%,11.7%,11.3%,12.2%,–,–,–,–,–,–,–,–
CCCSc1nnc(-c2ccccc2NC(=O)CC)c(O)n1 [Compound 5511-0142],10.5%,7.2%,13.8%,10.5%,7.2%,13.8%,–,–,–,–,–,–,–,–
C=CCSc1nnc(-c2ccccc2NC(=O)CC)c(O)n1 [Compound 6969-1085],16.8%,15.5%,18%,16.8%,15.5%,18%,–,–,–,–,–,–,–,–
CCCC(=O)Nc1ccccc1-c1nnc(SC)nc1O [Compound 7033-0155],20.2%,19.5%,20.9%,20.2%,19.5%,20.9%,–,–,–,–,–,–,–,–
COc1ccc(-c2nnc(SCC(=O)Nc3cccc4ccccc34)nc2-c2ccccc2)cc1 [Compound 8014-3315],15.7%,18.6%,12.7%,15.7%,18.6%,12.7%,–,–,–,–,–,–,–,–
Cc1cccc(-n2c(=O)c3[nH]c4ccccc4sc=3c2=O)c1 [Compound 8211-0292],36.7%,35.6%,37.8%,36.7%,35.6%,37.8%,36.7%,–,–,–,–,–,–,–
Nc1ccccc1SCC(=O)Nc1cccc2nsnc12 [Compound 8415-09495],19.5%,17.8%,21.2%,19.5%,17.8%,21.2%,–,–,–,–,–,–,–,–
Cc1cccc(NC(=O)CS(=O)(=O)c2ccccc2)c1 [Compound C200-5958],–,–,–,–,–,–,–,−5.743%,−5.743%,–,–,–,–,–
CCn1c(=O)c(S(=O)(=O)c2ccccc2)c(O)c2ccccc21 [Compound C200-7197],26.3%,27.4%,25.1%,26.3%,27.4%,25.1%,–,–,–,–,–,–,–,–
O=C1CN(C(=O)CSc2ccccc2)c2ccccc2N1 [Compound D479-0271],19.7%,20.9%,18.5%,19.7%,20.9%,18.5%,–,–,–,–,–,–,–,–
COc1ccc(C2N[C@H](C(=O)O)Cc3c2[nH]c2ccccc32)cc1O (some centres unmarked) [Compound D715-0114],10.3%,0.98%,19.6%,–,–,–,–,–,–,10.3%,0.98%,19.6%,> 15%,–
COC(=O)[C@H]1Cc2c([nH]c3ccccc23)CN1 [Compound D715-0140],11.7%,9.77%,13.6%,–,–,–,–,–,–,11.7%,9.77%,13.6%,–,–
O=C(Cc1c[nH]c2ccccc12)Nc1ccc2oc(=O)ccc2c1 [Compound D715-0817],10.3%,9.04%,11.5%,–,–,–,–,–,–,10.3%,9.04%,11.5%,–,–
Cc1cc(C)n(CC(=O)NCCc2c[nH]c3ccccc23)n1 [Compound D715-0890],15.3%,17.1%,13.6%,–,–,–,–,–,–,15.3%,17.1%,13.6%,–,> 15%
O=C(O)C[C@@H]1NC(=O)c2ccccc2NC1=O [Compound D715-2673],14.5%,14.3%,14.7%,–,–,–,–,–,–,14.5%,14.3%,14.7%,–,< 15%
COc1ccccc1NC(=O)Cc1csc(NC(=O)Nc2ccccc2)n1 [Compound F042-0072],10.4%,13%,7.81%,–,–,–,–,–,–,10.4%,13%,7.81%,–,–
O=C(NCc1n[nH]c(=O)c2ccccc12)C(=O)N1CCCCCC1 [Compound F044-0011],22%,20.8%,23.2%,22%,20.8%,23.2%,–,–,–,–,–,–,–,–
CC(C)NC(=O)C(=O)NCc1n[nH]c(=O)c2ccccc12 [Compound F044-0043],13.7%,12.8%,14.7%,–,–,–,–,–,–,13.7%,12.8%,14.7%,–,< 15%
